Data published in BindingDB's records for doi:10.7270/Q2SF2TM0 (The Scripps Research Institute Molecular Screening Center, 2009).

Target: Beta-lactamase (Pseudomonas aeruginosa, UniProt Q79MP6)
Experiment: inhibition of IMP-1 beta-lactamase activity – biochemical, epi-absorbance, selectivity assay for VIM-2 inhibitor project, dose response (AID 1920)

Chain of Beta-lactamase (Q79MP6 whole entry): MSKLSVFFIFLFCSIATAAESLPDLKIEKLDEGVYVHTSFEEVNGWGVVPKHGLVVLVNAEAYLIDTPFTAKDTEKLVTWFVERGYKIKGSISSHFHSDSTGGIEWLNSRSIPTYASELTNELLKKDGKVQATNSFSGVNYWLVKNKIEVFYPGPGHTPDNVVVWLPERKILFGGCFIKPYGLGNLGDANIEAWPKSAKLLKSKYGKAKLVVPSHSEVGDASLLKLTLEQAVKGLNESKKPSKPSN

| Structure (SMILES) | IC50 |
| --- | --- |
| COc1ccc(OC)c(C=NNC(=O)Cc2c(C)[nH][nH]c2=O)c1 [SMR000147372] | > 59.6 µM |
| COc1ccc(OC)c(C2C(C(=O)c3ccco3)C(=O)C(=O)N2Cc2cccnc2)c1 (configuration not stated) [2-(2,5-dimethoxyphenyl)-3-(furan-2-carbonyl)-4-hydroxy-1-(pyridin-3-ylmethyl)-2H-pyrrol-5-one] | > 59.6 µM |
| O=C1C(=O)N(Cc2cccnc2)C(c2ccccn2)C1C(=O)c1cccs1 (configuration not stated) [3-hydroxy-5-(2-pyridinyl)-1-(3-pyridinylmethyl)-4-(2-thienylcarbonyl)-1,5-dihydro-2H-pyrrol-2-one] | > 59.6 µM |
| COc1cc(OC)c(OC)cc1C=NNC(=O)Cc1c(C)[nH][nH]c1=O [MLS000555854] | > 59.6 µM |
| O=C1C(=O)N(Cc2cccnc2)C(c2ccccn2)C1C(=O)c1ccccc1 (configuration not stated) [(4Z)-4-[hydroxy(phenyl)methylene]-5-(2-pyridyl)-1-(3-pyridylmethyl)pyrrolidine-2,3-quinone] | > 59.6 µM |
| O=C1C(=O)N(Cc2cccnc2)C(c2ccccn2)C1C(=O)c1ccc(F)cc1 (configuration not stated) [(4Z)-4-[(4-fluorophenyl)-hydroxy-methylene]-5-(2-pyridyl)-1-(3-pyridylmethyl)pyrrolidine-2,3-quinone] | > 59.6 µM |
| COc1ccc(C(=O)C2C(=O)C(=O)N(Cc3ccco3)C2c2cc(OC)ccc2OC)cc1 (configuration not stated) [(4E)-5-(2,5-dimethoxyphenyl)-1-(2-furanylmethyl)-4-[hydroxy-(4-methoxyphenyl)methylidene]pyrrolidine-2,3-dione] | > 59.6 µM |
